The values below are quoted from earlier work in US20210315248A1, “SYSTEM AND METHOD FOR HOVENIA DULCIS EXTRACTION” (82 Labs Inc., priority 2020, published 2021).

On the set-up of series [1]: key: ability to form inclusion complexes, as indicated by a “+”. To be noted: guest molecule with α-cyclodextrin.
Details of series [2]: key: ability to form inclusion complexes, as indicated by a “+”. As to conditions: guest molecule with β-cyclodextrin.
On the set-up of series [3]: key: ability to form inclusion complexes, as indicated by a “+”. To be noted: guest molecule with γ-cyclodextrin.
Assay in series [4]: not given
The source holds these as a separate data set.

`CCC(=O)O` [Propionic acid]: the “ability to form inclusion complexes with α-CD” value (shortened to “ability … with α-CD”) in series [1] was “+”.

`CCCC(=O)O` [Butyric acid]: the “ability … with α-CD” value in series [1] was “+”. Also, in series [2], the “ability to form inclusion complexes with β-CD” value (from here on “ability … with β-CD”) was “+”.

As to `c1ccc2cc3ccccc3cc2c1` [Anthracene], the “ability to form inclusion complexes with γ-CD” value (“ability … with γ-CD” below) in series [3] is “+”.

On to `c1ccc2ccccc2c1` [Naphthalene], for which, in series [3], the “ability … with γ-CD” value is on record as “+”. Besides, in series [2], the “ability … with β-CD” value is listed as “+”.

Regarding `[Xe]` [Xenon], the “ability … with α-CD” value in series [1] is listed as “+”.

In the case of `O=C1c2c(O)cc(O)cc2O[C@H](c2cc(O)c(O)c(O)c2)[C@H]1O` [DHM, (2R,3R)-3,5,7-trihydroxy-2-(3,4,5-trihydroxyphenyl)-2,3-dihydrochromen-4-one], the “permeability Peff” value is “(1.84±0.37)×10^−6 cm/s”.

For the compound `C1CCCCC1` [Cyclohexane], in series [1], the “ability … with α-CD” value was “+”. The “ability … with γ-CD” value in series [3] is “+”. For the same compound, the “ability … with β-CD” value in series [2] was “+”.

As for `OC[C@H]1O[C@@H]2O[C@H]3[C@H](O)[C@@H](O)[C@@H](O[C@H]4[C@H](O)[C@@H](O)[C@@H](O[C@H]5[C@H](O)[C@@H](O)[C@@H](O[C@H]6[C@H](O)[C@@H](O)[C@@H](O[C@H]7[C@H](O)[C@@H](O)[C@@H](O[C@H]1[C@H](O)[C@H]2O)O[C@@H]7CO)O[C@@H]6CO)O[C@@H]5CO)O[C@@H]4CO)O[C@@H]3CO` [α-Cyclodextrin, α-cyclodextrin], the “pKa value (25° C.)” value in series [4] was 12.331.
